Read-outs that look alike come from different tables or passages of the source. Each block holds one molecule with its values, some of them ahead of it.
What was measured:
[1] = tested on: mouse macrophages; experiment: stimulated release of TNF-α from mouse macrophages; assay type: cell-based; conditions: Macrophage
Procedure, shortened: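 EC50 derived from dose-response curves for stimulated TNF-α release from mouse macrophages.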

[2] = tested on: differentiated human THP-1 cells; experiment: stimulated release of TNF-α from differentiated human THP-1 cells (ELISA, dose-response); assay type: cell-based; conditions: Homo sapiens
Procedure, shortened: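 Human THP-1 cells were PMA-differentiated toward macrophages, and stimulated TNF-α release was measured by ELISA. EC50 values were taken from dose-response curves.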

[3] = table of 125-132 (one lipid side chain, R and S), mouse macrophages, read-out: EC50 (nM) (mouse)
[4] = THP-1, table of 125-132 (one lipid side chain, R and S), human THP-1 cells, read-out: EC50 (nM) (THP-1)
[5] = Table 1, TNF-α release from mouse macrophages, read-out: EC50 (nM) (mouse)
[6] = THP-1, Table 1, TNF-α release from human THP-1 cells, read-out: EC50 (nM) (THP-1)

Structure (SMILES): O=C(N[C@H]1C[C@@H]1c1ccccc1)[C@@H]1CN(C(=O)C/C=C/CC(=O)N2C[C@@H](C(=O)N[C@H]3C[C@@H]3c3ccccc3)[C@H](C(=O)N[C@H]3C[C@@H]3c3ccccc3)C2)C[C@H]1C(=O)N[C@H]1C[C@@H]1c1ccccc1 [Compound 37, (3S,3′S,4S,4′S)-1,1′-((E)-Hex-3-enedoyl)bis-(N^3,N^4-bis((1S,2R)-2-phenylcyclopropyl)pyrrolidine-3,4-dicarboxamide)]
EC50 [1, 5]: > 5000 nM
EC50 [2, 6]: > 5000 nM

Structure (SMILES): O=C(N[C@H]1C[C@@H]1c1ccccc1)[C@@H]1CN(C(=O)Cc2cccc(CC(=O)N3C[C@@H](C(=O)N[C@H]4C[C@@H]4c4ccccc4)[C@H](C(=O)N[C@H]4C[C@@H]4c4ccccc4)C3)c2)C[C@H]1C(=O)N[C@H]1C[C@@H]1c1ccccc1 [Compound 46, (3S,3′S,4S,4′S)-1,1′-((1,3-Phenylene)diacetyl)-bis(N^3,N^4-bis((1S,2R)-2-phenylcyclopropyl)-pyrrolidine-3,4-dicarboxamide)]
EC50 ([1]; Table 2, TNF-α release from mouse macrophages, read-out: EC50 (nM) (mouse)): > 5000 nM
EC50 ([2]; THP-1, Table 2, TNF-α release from human THP-1 cells, read-out: EC50 (nM) (THP-1)): > 5000 nM

Structure (SMILES): O=C(N[C@H]1C[C@@H]1c1ccccc1)[C@@H]1CN(C(=O)COCC(=O)N2C[C@@H](C(=O)N[C@H]3C[C@@H]3c3ccccc3)[C@H](C(=O)N[C@H]3C[C@@H]3c3ccccc3)C2)C[C@H]1C(=O)N[C@H]1C[C@@H]1c1ccccc1 [Compound 40, (3S,3′S,4S,4′S)-1,1′-(2,2′-Oxybis-(acetyl))bis-(N^3,N^4-bis((1S,2R)-2-phenylcyclopropyl)pyrrolidine-3,4-dicarboxamide)]
EC50 [1, 5]: > 5000 nM
EC50 [2, 6]: > 5000 nM

Structure (SMILES): O=C(NCCc1ccc(F)cc1)[C@@H]1CN(C(=O)c2ccc(-c3ccc(C(=O)N4C[C@@H](C(=O)NCCc5ccc(F)cc5)[C@H](C(=O)NCCc5ccc(F)cc5)C4)cc3)cc2)C[C@H]1C(=O)NCCc1ccc(F)cc1 [Compound 104, (3S,3′S,4S,4′S)-1,1′-([1,1′-Biphenyl]-4,4′-dicarbonyl)bis(N^3,N^4-bis(4-fluoro-phenethyl)-pyrrolidine-3,4-dicarboxamide)]
EC50 ([1]; Table 7, TNF-α release from mouse macrophages, read-out: EC50 (nM) (mouse)): > 5000 nM
EC50 ([2]; THP-1, Table 7, TNF-α release from human THP-1 cells, read-out: EC50 (nM) (THP-1)): > 5000 nM

Structure (SMILES): O=C(N[C@@H]1C[C@H]1c1ccccc1)[C@H]1CN(C(=O)c2ccc(C(=O)N3C[C@@H](C(=O)N[C@@H]4C[C@H]4c4ccccc4)[C@H](C(=O)N[C@@H]4C[C@H]4c4ccccc4)C3)cc2)C[C@@H]1C(=O)N[C@@H]1C[C@H]1c1ccccc1 [Compound 24, (3S,4S)-1-(4-((3R,4R)-3,4-Bis(((1R,2S)-2-phenyl-cyclopropyl)carbamoyl)-pyrrolidine-1-carbonyl)-benzoyl)—N^3,N^4-bis((1R,2S)-2-phenylcyclopropyl)-pyrrolidine-3,4-dicarboxamide]
EC50 ([1]; Mus musculus, Scheme 1, footnote b, read-out: EC50 TNF-α release from mouse macrophages): > 5000 nM
EC50 ([2]; THP-1, Scheme 1, footnote a, read-out: EC50 TNF-α release from human THP-1 cells): > 5000 nM

Continued, values first:

EC50 [1, 3]: 240 nM
EC50 [2, 4]: 4 nM
Structure (SMILES): CCCCCCCCCCCCCCNC(=O)[C@H]1CCN(C(=O)c2ccc(C(=O)N3C[C@@H](C(=O)N[C@H]4C[C@@H]4c4ccccc4)[C@H](C(=O)N[C@H]4C[C@@H]4c4ccccc4)C3)cc2)C1 [Compound 130, (3S,4S)—N^3,N^4-Bis((1S,2R)-2-phenylcyclopropyl)-1-(4-((S)-3-(tetradecylcarbamoyl)pyrrolidine-1-carbonyl)benzoyl)pyrrolidine-3,4-dicarboxamide]

EC50 [1, 3]: 1800 nM
EC50 [2, 4]: 33 nM
Structure (SMILES): CCCCCCCCCCNC(=O)[C@H]1CCN(C(=O)c2ccc(C(=O)N3C[C@@H](C(=O)N[C@H]4C[C@@H]4c4ccccc4)[C@H](C(=O)N[C@H]4C[C@@H]4c4ccccc4)C3)cc2)C1 [Compound 132, (3S,4S)-1-(4-((S)-3-(Decylcarbamoyl)pyrrolidine-1-carbonyl)benzoyl)—N^3,N^4-bis((1S,2R)-2-phenyl-cyclopropyl)pyrrolidine-3,4-dicarboxamide]

EC50 ([1]; table of 140-146 (four lipid side chains), mouse macrophages, read-out: EC50 (nM) (mouse)): > 5000 nM
EC50 ([2]; THP-1, table of 140-146 (four lipid side chains), human THP-1 cells, read-out: EC50 (nM) (THP-1)): > 5000 nM
Structure (SMILES): CCCCCCCCCCCCCCNC(=O)[C@@H]1CN(C(=O)c2ccc(C(=O)N3C[C@@H](C(=O)NCCCCCCCCCCCCCC)[C@H](C(=O)NCCCCCCCCCCCCCC)C3)cc2)C[C@H]1C(=O)NCCCCCCCCCCCCCC [Compound 141, (3S,3′S,4S,4′S)-1,1′-Terephthaloylbis(N^3,N^4-ditetradecylpyrrolidine-3,4-dicarboxamide)]
